The results in this text go back to US11970474B2, “Substituted benzodiazoles and use thereof in therapy” (THOMAS HELLEDAYS STIFTELSE FÖR MEDICINSK FORSKNING, priority 2018, dated 2024).

The target of this assay is OGG1 (Homo sapiens (Human), UniProt O15527). As to the kind of experiment: In vitro OGG1 activity assay. It is filed as biochemical. The following applies: 800 pM OGG1 enzyme, 2 nM human APEX1, 10 nM 8-oxoA:C substrate. The protocol:
Method 1: In Vitro OGG1 Activity Assay OGG1 activity is assayed by measuring the increase in fluorescence from a duplex oligonucleotide containing an OGG1 substrate and a fluorophore in close proximity that are quenched by a quencher on the complementary strand. […] OGG1 activity releases the substrate base from DNA by cleaving the N-glycosidic bond between base and deoxyribose. The resulting apurinic site is cleaved by an excessive amount APEX1 activity which cause the duplex to melt, which in turn cause the fluorophore to become unquenched. Compounds to be tested are dissolved in DMSO and nano-dispensed directly into black 384-well plates, followed by transfer of enzyme and substrate solutions. […] The fluorescent signal is recorded in a plate reader equipped with suitable filters to register fluorescein fluorescence.

Sequence of OGG1 (O15527 whole entry): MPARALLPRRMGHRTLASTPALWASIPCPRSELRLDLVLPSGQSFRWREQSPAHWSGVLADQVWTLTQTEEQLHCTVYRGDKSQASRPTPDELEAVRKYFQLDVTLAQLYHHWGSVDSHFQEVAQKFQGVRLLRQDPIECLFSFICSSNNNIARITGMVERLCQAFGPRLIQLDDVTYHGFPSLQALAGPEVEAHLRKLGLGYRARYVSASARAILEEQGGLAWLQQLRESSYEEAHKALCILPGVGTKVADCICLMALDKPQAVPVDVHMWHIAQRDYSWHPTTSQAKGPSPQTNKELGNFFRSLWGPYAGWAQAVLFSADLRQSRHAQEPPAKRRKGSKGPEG

For `COc1cc(NC(=O)[C@H]2CC[C@@H](n3c(=O)[nH]c4c(Br)cccc43)CC2)cc(C(F)(F)F)c1` [Example 158, (Cis)-4-(4-bromo-2-oxo-2,3-dihydro-1H-1,3-benzodiazol-1-yl)-N-[3-methoxy-5-(trifluoromethyl)phenyl]cyclohexane-1-carboxamide], inhibition was half-maximal at 6050 nM (IC50).

On to `CC1CN(C(=O)Nc2ccc(Cl)c(Cl)c2)CCC1n1c(=O)[nH]c2c(Br)cccc21` (stereo not shown) [Example 113, 4-(4-Bromo-2-oxo-2,3-dihydro-1H-benzo[d]imidazol-1-yl)-N-(3,4-dichlorophenyl)-3-methylpiperidine-1-carboxamide], for which the IC50 was found to be 3200 nM.

`COc1cc(NC(=O)N2CCC(n3c(=O)[nH]c4c(C)cccc43)CC2)ccc1C` [Example 115, N-(3-methoxy-4-methylphenyl)-4-(4-methyl-2-oxo-2,3-dihydro-1H-1,3-benzodiazol-1-yl)piperidine-1-carboxamide] registered a half-inhibitory concentration (IC50) of 1430 nM.

Compound `COc1cc(NC(=O)[C@H]2CC[C@@H](n3c(=O)[nH]c4c(C(=O)N(C)C)cccc43)CC2)ccc1C` [Example 260, N,N-Dimethyl-2-oxo-1-[cis-4-[(3-methoxy-4-methylphenyl)carbamoyl]cyclohexyl]-2,3-dihydro-1H-1,3-benzodiazole-4-carboxamide] gave an IC50 of 343 nM.

On to `COc1cc(NC(=O)[C@H]2CC[C@@H](n3c(=O)[nH]c4c(C(=O)NCCNS(C)(=O)=O)cccc43)CC2)ccc1C` [Example 251, N-(2-Methanesulfonamidoethyl)-2-oxo-1-[cis-4-[(3-methoxy-4-methylphenyl)carbamoyl]cyclohexyl]-2,3-dihydro-1H-1,3-benzodiazole-4-carboxamide], for which the half-maximal inhibitory concentration (IC50) amounted to 4.25 nM.

With `COc1cc(NC(=O)[C@H]2CC[C@@H](n3c(=O)[nH]c4c(C(=O)NCCNC(C)=O)cccc43)CC2)ccc1C` [Example 253, Cis-4-{4-[(2-acetamidoethyl)carbamoyl]-2-oxo-2,3-dihydro-1H-1,3-benzodiazol-1-yl}-N-(3-methoxy-4-methylphenyl)cyclohexane-1-carboxamide], the midpoint of inhibition, the IC50, lay at 6.79 nM.

In turn, `Cc1cc(N)c(NC(=O)[C@H]2CC[C@@H](n3c(=O)[nH]c4c(Br)cccc43)CC2)cc1C` [Example 223, Cis-N-(2-amino-4,5-dimethylphenyl)-4-(4-bromo-2-oxo-2,3-dihydro-1H-1,3-benzodiazol-1-yl)cyclohexane-1-carboxamide] showed an IC50 of 1670 nM.

In the case of `COc1cc(NC(=O)[C@H]2CC[C@@H](n3c(=O)[nH]c4c(N5CCC(N)CC5)cccc43)CC2)ccc1C` [Example 303, Cis-4-[4-(4-aminopiperidin-1-yl)-2-oxo-2,3-dihydro-1H-1,3-benzodiazol-1-yl]-N-(3-methoxy-4-methylphenyl)cyclohexane-1-carboxamide], the IC50 is 10.6 nM.

`COc1cc(NC(=O)[C@H]2CC[C@@H](n3c(=O)[nH]c4c(NC(C)=O)cccc43)CC2)ccc1C` [Example 288, Cis-4-(4-acetamido-2-oxo-2,3-dihydro-1H-1,3-benzodiazol-1-yl)-N-(3-methoxy-4-methylphenyl)cyclohexane-1-carboxamide] showed a 50% inhibitory concentration (IC50) of 23 nM.

`COc1ccc(NC(=O)[C@H]2CC[C@@H](n3c(=O)[nH]c4ncccc43)CC2)cc1` [Example 234, Cis-N-(4-methoxyphenyl)-4-{2-oxo-1H,2H,3H-imidazo[4,5-b]pyridin-1-yl}cyclohexane-1-carboxamide]: half-maximal inhibition (IC50) was put at 572 nM.

As to `COc1cc(NC(=O)[C@H]2CC[C@@H](n3c(=O)[nH]c4c(NC(=O)c5ccnn5C)cccc43)CC2)ccc1C` [Example 321, 1-Methyl-N-{2-oxo-1-[cis-4-[(3-methoxy-4-methylphenyl)carbamoyl]cyclohexyl]-2,3-dihydro-1H-1,3-benzodiazol-4-yl}-1H-pyrazole-5-carboxamide], the IC50 was 5.75 nM.

`CN(C)CCOc1ccc(-c2cccc3c2[nH]c(=O)n3C2CCN(C(=O)Nc3ccc(Cl)c(Cl)c3)CC2)cc1` [Example 36, N-(3,4-dichlorophenyl)-4-(4-{4-[2-(dimethylamino)ethoxy]phenyl}-2-oxo-2,3-dihydro-1H-1,3-benzodiazol-1-yl)piperidine-1-carboxamide]: the IC50 is 3650 nM.

The compound `O=c1[nH]c2c(Br)cccc2n1[C@H]1CC[C@@H](C(=O)Nc2ccc(C(F)(F)F)c(F)c2)CC1` [Example 137, (Cis)-4-(4-bromo-2-oxo-2,3-dihydro-1H-1,3-benzodiazol-1-yl)-N-[3-fluoro-4-(trifluoromethyl)phenyl]cyclohexane-1-carboxamide] came in with a concentration for half-maximal inhibition (IC50) of 2030 nM.

With `COc1ccc(NC(=O)[C@H]2CC[C@@H](n3c(=O)[nH]c4ccc(F)cc43)CC2)cc1C` [Example 217, Cis-4-(6-fluoro-2-oxo-2,3-dihydro-1H-1,3-benzodiazol-1-yl)-N-(4-methoxy-3-methylphenyl)cyclohexane-1-carboxamide], the concentration for half-maximal inhibition (IC50) came to 586 nM.

For `COc1ncc(NC(=O)[C@H]2CC[C@@H](n3c(=O)[nH]c4ncccc43)CC2)cc1C` [Example 235, Cis-N-(6-methoxy-5-methylpyridin-3-yl)-4-{2-oxo-1H,2H,3H-imidazo[4,5-b]pyridin-1-yl}cyclohexane-1-carboxamide], the concentration for half-maximal inhibition (IC50) was 1450 nM.

For `CCOc1cccc2c1[nH]c(=O)n2C1CCN(C(=O)Nc2ccc(I)cc2)CC1` [Example 18, 4-(4-Ethoxy-2-oxo-2,3-dihydro-1H-1,3-benzodiazol-1-yl)-N-(4-iodophenyl)piperidine-1-carboxamide], 1390 nM corresponded to half-maximal inhibition (IC50).

The compound `O=C(Nc1cnc(Cl)c(Cl)c1)N1CCC(n2c(=O)[nH]c3c(Br)cccc32)CC1` [Example 109, 4-(4-Bromo-2-oxo-2,3-dihydro-1H-1,3-benzodiazol-1-yl)-N-(5,6-dichloropyridin-3-yl)piperidine-1-carboxamide] returned a concentration for half-maximal inhibition (IC50) of 6460 nM.

`CCN(CC)C(=O)c1cnn(-c2cccc3c2[nH]c(=O)n3C2CCN(C(=O)Nc3ccc(I)cc3)CC2)c1` [Example 88, 4-{4-[4-(Diethylcarbamoyl)-1H-pyrazol-1-yl]-2-oxo-2,3-dihydro-1H-1,3-benzodiazol-1-yl}-N-(4-iodophenyl)piperidine-1-carboxamide] showed a 50% inhibitory concentration (IC50) of 1760 nM.

For `COc1ccc(NC(=O)N2CCC(n3c(=O)[nH]c4c(-c5cccnc5)cccc43)CC2)cc1Cl` [Example 98, N-(3-chloro-4-methoxyphenyl)-4-[2-oxo-4-(pyridin-3-yl)-2,3-dihydro-1H-1,3-benzodiazol-1-yl]piperidine-1-carboxamide], the IC50 stood at 2620 nM.

Compound `COc1cc(NC(=O)[C@H]2CC[C@@H](n3c(=O)[nH]c4c(C(=O)NCCN)cccc43)CC2)ccc1C` [Example 247, N-(2-Aminoethyl)-2-oxo-1-[cis-4-[(3-methoxy-4-methylphenyl)carbamoyl]cyclohexyl]-2,3-dihydro-1H-1,3-benzodiazole-4-carboxamide] gave an IC50 of 0.62 nM.

As to `COc1ccc(NC(=O)N2CCC(n3c(=O)[nH]c4cc(C)ccc43)CC2)cc1Cl` [Example 179, N-(3-Chloro-4-methoxyphenyl)-4-(5-methyl-2-oxo-2,3-dihydro-1H-1,3-benzodiazol-1-yl)piperidine-1-carboxamide], the IC50 was determined as 1570 nM.

Compound `Cc1ccc(NC(=O)[C@H]2CC[C@@H](n3c(=O)[nH]c4c(Br)cccc43)CC2)cc1C(F)(F)F` [Example 144, (Cis)-4-(4-bromo-2-oxo-2,3-dihydro-1H-1,3-benzodiazol-1-yl)-N-[4-methyl-3-(trifluoromethyl)phenyl]cyclohexane-1-carboxamide] showed an IC50 of 983 nM.
